Tested on: T1, AadA36
T1 construct: N-terminal His-tag removed with thrombin
Assay: coupled NADPH assay at […] nm (UDP-glucose pyrophosphorylase, phosphoglucomutase, glucose-6-phosphate dehydrogenase), Michaelis-Menten fit
Format: biochemical, Providencia stuartii
Details: 50 mM HEPES pH 7.5, 10 mM MgCl2, 1 mM ATP, 0.2 mM DTT, substrate 5-150 μM

Row | Compound | Km [µM]
1 | [H]/N=C(/N)N[C@H]1[C@H](O)[C@@H](O)[C@H](O[C@@H]2O[C@@H](C)[C@](O)(C=O)[C@H]2O[C@@H]2O[C@@H](CO)[C@H](O)[C@@H](O)[C@@H]2NC)[C@@H](N/C(N)=N\[H])[C@@H]1O [streptomycin] | 59.5 ± 14.1
2 | CN[C@@H]1[C@H](O)[C@H](NC)[C@H]2O[C@@]3(O)C(=O)C[C@@H](C)O[C@H]3O[C@@H]2[C@H]1O [spectinomycin] | 49.1 ± 12.8
